# According to US20130172424A1, “METHODS AND COMPOSITIONS FOR TREATING DIABETES” (GOLDEN BIOTECHNOLOGY CORPORATION, priority 2011, published 2013):
# Where “and” joins values, the source holds several entries; their conditions need not be identical. Identical values can stand only once.
# Tested on: diabetes induced by STZ in SD rats
# Test: Treatment of diabetes induced by STZ in rats
# Assay type: in vivo, Sprague-Dawley rat
# Settings: Group B (AopE+STZ+Compound 1), individual rats ID 1-4, before meals
# Procedure: The effects of exemplary cyclohexnone compound 1 in treating a subject suffering from diabetes were investigated in a Sprague-Dawley rat model over a four week period. The example describes the results of such experiments.
# In vivo models. A rat model of diabetes was established by low-dose streptozotocin (STZ, 60 mg/kg) injection in SD rats. Rats of the same batch fed with normal chow (NRC) were used as a control (n=4).
# Study group. Group A: diabetes without treatment group, n=6; Group B: AopE+STZ+Compound 1, n=4. […] Rats of Group B (treatment group) have the following blood sugar data before meals: […]
smiles,measurement,setting,value
"COC1=C(OC)C(O)C(C/C=C(\C)CC/C=C(\C)CCC=C(C)C)C(C)C1=O (centres unmarked) [Compound 1, 4-hydroxy-2,3-dimethoxy-6-methyl-5-(3,7,11-trimethyldodeca-2,6,10-trienyl)cyclohex-2-enone]",2nd week blood sugar level,2nd week,421 mg/dL and 330 mg/dL and 261 mg/dL and 484 mg/dL
same,4th week Blood sugar level,"4th week, untreated diabetic rats about 400-500 mg/dl, control about 100 mg/dl",147 mg/dL and 149 mg/dL and 89 mg/dL and 388 mg/dL
